Source: paper PMC9542247 (Angewandte Chemie (International Ed. in English), 2022)
Non-standard residues stand in square brackets, D forms with d. Residues, ends and D or L forms follow the SMILES beside them. No end group written: not given here.

System: P450Blt (CYP1251 C3)
Test: Small scale enzymatic cyclisation
Format: biochemical, Micromonospora sp. MW-13
Settings: for loss of P450Blt cyclisation activity compared to 1: fold reduction versus 1; for P450Blt-catalysed cyclisation, result in words: small scale enzymatic cyclisation, LCMS

Compound	P450Blt-catalysed cyclisation, result in words	further results
CSCC[C@H](N)C(=O)N[C@@H](CCCNC(=N)N)C(=O)N[C@@H](Cc1ccc(O)cc1)C(=O)N[C@@H](CC(C)C)C(=O)N[C@H](Cc1c[nH]cn1)C(=O)O [compound 17] (H-MRYL[dH]-OH)		conversion relative to that of 1 (relative to 1): > 10%
MNYLH-OH [compound 6]		loss of P450Blt cyclisation activity compared to 1: ≈ 2 fold
MRYLW [compound 24]	very effective	level of cyclisation as fraction of that of 1 (relative to 1): 2/3
MRYWH-OH [compound 8]	almost totally abolished activity	
MSYDH-OH [compound 7]	no further reduction in cyclisation than for 5 alone	
MSYLH-OH [compound 5]		loss of P450Blt cyclisation activity compared to 1: ≈ 6 fold
RYLH-OH [compound 2]	significantly reduced activity	
fMRYLH-OH [f-1]	did not affect cyclisation	
